± gives the standard deviation of the averaged measurements.
Experiments:
Assay in all cases: CTG-3D luminescence at 96 h relative to day-0 seeding control (ratio to day 0); higher = more growth / less cytotoxicity; PDxO 3D drug screen (set 2), 96 h, CTG-3D normalised to day-0 seeding control.
[1] = system: HCI-003.E2 (organoid from an ER-positive breast cancer xenograft)
[2] = system: HCI-010 (organoid from a breast cancer xenograft)
[3] = system: HCI-017.E2 (organoid from an ER-positive breast cancer xenograft)
[4] = system: HCI-019 (organoid from a triple-negative breast cancer xenograft)
[5] = system: HCI-023 (organoid from a triple-negative breast cancer xenograft)
[6] = system: HCI-025 (organoid from a breast cancer xenograft)

O=C(c1cc(Cc2n[nH]c(=O)c3ccccc23)ccc1F)N1CCN(C(=O)C2CC2)CC1 [olaparib]
CTG-3D luminescence at 96 h
Details	12.5 pM	0.00025 µM	0.005 µM	0.1 µM	1 µM	10 µM	100 µM	625 fM
[1]	2.72 ± 0.58	2.74 ± 0.85	2.72 ± 0.97	2.75 ± 0.72	2.24 ± 0.089	1.27 ± 0.25	0.0215 ± 0.0052	2.79 ± 0.81
[3]	2.27 ± 0.03	2.61 ± 0.52	2.34 ± 0.22	2.76 ± 0.57	2.06 ± 0.25	1.12 ± 0.051	0.259 ± 0.025	2.59 ± 0.23

CTG-3D luminescence at 96 h
Details	12.5 pM	0.00025 µM	0.005 µM	0.1 µM	1 µM	10 µM	100 µM	625 fM
[2], days in culture: 79	2.04	1.79	2.08	2.11	1.98	1.43	0.445	2.19
[2], days in culture: 86	2.3	2.5	2.59	2.35	2.34	1.68	0.309	2.43
[2], days in culture: 102	1.21	1.27	1.15	1.36	1.26	0.657	0.0517	1.12
[2], days in culture: 164	1.72	1.56	1.64	1.57	1.54	0.88	0.272	1.61
[3], days in culture: 85	2.36	1.92	1.89	2.06	1.56	0.709	0.204	2.56
[4], days in culture: 173	2.78	1.9	2.2	2.31	0.982	0.711	1.32	1.96
[4], days in culture: 194	0.984	1.95	2.68	1.65	1.48	0.946	0.789	2.41
[4], days in culture: 215	2	2.06	1.04	1.59	1.06	0.36	0.254	1.33
[5], days in culture: 223	1.7	2.3	1.79	1.65	1.36	1.31	0.879	1.75
[5], days in culture: 238	1.45	1.31	1.45	1.53	1.9	1.41	0.856	1.72
[5], days in culture: 252	2.12	1.81	1.55	2	1.78	1.86	1.59	2.3
[6], days in culture: 175	1.97	2.33	1.9	1.95	3.08	2.2	0.866	2.02
[6], days in culture: 189	1.46	2.11	1.91	2.25	1.86	1.28	0.825	2.78
[6], days in culture: 212	3.74	3.65	1.79	1.22	1.32	1.72	0.66	2
[6], days in culture: 224	1.96	1.72	1.81	1.9	2.05	1.41	0.478	1.81

CC(=O)c1c(C)c2cnc(Nc3ccc(N4CCNCC4)cn3)nc2n(C2CCCC2)c1=O [palbociclib]
CTG-3D luminescence at 96 h
Details	12.5 pM	0.00025 µM	0.005 µM	0.1 µM	1 µM	10 µM	100 µM	625 fM
[1]	2.52 ± 0.43	2.44 ± 0.46	2.53 ± 0.76	2.82 ± 0.78	2.21 ± 0.33	1.92 ± 0.12	0.594 ± 0.47	2.88 ± 0.87
[3]	2 ± 0.16	2.45 ± 0.34	2.1 ± 0.028	2.37 ± 0.17	1.98 ± 0.21	2.346 ± 0.0064	1.25 ± 0.19	2.23 ± 0.092

CTG-3D luminescence at 96 h
Details	12.5 pM	0.00025 µM	0.005 µM	0.1 µM	1 µM	10 µM	100 µM	625 fM
[2], days in culture: 79	1.68	1.69	1.79	1.9	1.71	1.47	0.772	1.88
[2], days in culture: 86	2.36	2.42	2.72	2.52	2.49	2.34	1.26	2.21
[2], days in culture: 102	1.09	1.35	1.2	1.65	1.56	1.54	0.787	1.15
[2], days in culture: 164	1.31	1.57	1.74	1.67	1.73	1.25	0.562	1.37
[3], days in culture: 85	2.34	1.47	2.15	2.41	1.66	1.8	1.58	1.96
[4], days in culture: 173	2.68	2.28	1.24	2.55	2.78	1.39	1.9	2.01
[4], days in culture: 194	3.12	1.02	3.29	2.76	2.08	1.97	1.02	1.43
[4], days in culture: 215	1.93	1.31	2.06	1.48	1.83	1.35	1.38	1.73
[5], days in culture: 223	2.23	2.46	1.71	1.94	1.21	1.61	1.04	1.86
[5], days in culture: 238	1.53	1.27	1.67	1.48	1.87	1.53	0.908	1.59
[5], days in culture: 252	2.28	1.93	1.66	1.79	1.79	1.92	1.35	1.91
[6], days in culture: 175	1.84	2.51	1.75	1.97	2.37	2.28	1.24	1.97
[6], days in culture: 189	2.77	1.41	2.23	1.9	1.78	1.42	0.673	3.4
[6], days in culture: 212	2.24	1.43	1.94	1.29	0.809	2.39	2.52	2.45
[6], days in culture: 224	1.84	1.83	1.88	1.26	2	2.17	1.17	1.33

CO[C@H]1C[C@@H]2CC[C@@H](C)[C@@](O)(O2)C(=O)C(=O)N2CCCC[C@H]2C(=O)O[C@H]([C@H](C)C[C@@H]2CC[C@@H](O)[C@H](OC)C2)CC(=O)[C@H](C)/C=C(\C)[C@@H](O)[C@@H](OC)C(=O)[C@H](C)C[C@H](C)/C=C/C=C/C=C/1C [rapamycin]
CTG-3D luminescence at 96 h
Details	12.5 pM	0.00025 µM	0.005 µM	0.1 µM	1 µM	10 µM	100 µM	625 fM
[1]	1.08 ± 0.23	1.04 ± 0.087	0.947 ± 0.31	0.798 ± 0.11	1.03 ± 0.26	0.994 ± 0.28	0.0195 ± 0.0064	1.32 ± 0.13
[3]	1.41 ± 0.26	1.88 ± 0.34	1.61 ± 0.12	1.58 ± 0.15	1.56 ± 0.074	1.63 ± 0.34	0.0217 ± 0.0042	1.583 ± 0.013

CTG-3D luminescence at 96 h
Details	12.5 pM	0.00025 µM	0.005 µM	0.1 µM	1 µM	10 µM	100 µM	625 fM
[2], days in culture: 79	1.09	1.02	1.11	1.13	0.996	0.98	0.00731	1.13
[2], days in culture: 86	1.91	1.75	1.61	1.37	1.45	1.46	0.0226	2.35
[2], days in culture: 102	0.91	0.799	0.831	0.806	0.875	0.636	0.00488	0.865
[2], days in culture: 164	1.39	1.27	1.02	0.996	1.17	0.924	0.0097	1.26
[3], days in culture: 85	2.2	1.67	1.47	1.51	1.34	1.31	0.0123	2.57
[4], days in culture: 173	1.07	0.905	0.844	1.93	1.36	1.43	0.0117	1.08
[4], days in culture: 194	1.66	1.04	1.1	0.588	1.28	1.54	0.0107	2.69
[4], days in culture: 215	1.12	0.5	0.486	1.15	0.713	0.457	0.00468	1.43
[5], days in culture: 223	1.62	1.63	1.09	1.99	0.95	1.49	0.0136	2.02
[5], days in culture: 238	1.36	1.16	0.919	1.42	1.46	1.5	0.0105	1.26
[5], days in culture: 252	1.76	1.4	1.31	1.72	1.32	1.8	0.00661	1.58
[6], days in culture: 175	1.08	1.22	1.44	1.39	1.87	1.67	0.0257	0.977
[6], days in culture: 189	1.35	1.19	1.11	0.862	0.888	0.979	0.0056	1.27
[6], days in culture: 212	2.1	0.842	1.53	1.27	0.387	1.15	0.0154	1.5
[6], days in culture: 224	1.83	1.19	0.969	0.734	1.53	1.31	0.00743	1.36

CC(C)n1nc(-c2ccc3oc(N)nc3c2)c2c(N)ncnc21 [sapanisertib]
CTG-3D luminescence at 96 h
Details	12.5 pM	0.00025 µM	0.005 µM	0.1 µM	1 µM	10 µM	100 µM	625 fM
[1]	2.44 ± 0.35	2.37 ± 0.23	2.1 ± 0.75	0.144 ± 0.073	0.0411 ± 0.026	0.0196 ± 0.0061	0.00904 ± 0.0012	2.87 ± 0.73
[3]	2.17 ± 0.34	2.44 ± 0.51	1.79 ± 0.052	0.877 ± 0.12	0.558 ± 0.031	0.399 ± 0.099	0.125 ± 0.061	2.58 ± 0.079

CTG-3D luminescence at 96 h
Details	12.5 pM	0.00025 µM	0.005 µM	0.1 µM	1 µM	10 µM	100 µM	625 fM
[2], days in culture: 79	1.62	1.71	1.53	0.599	0.388	0.119	0.00579	1.95
[2], days in culture: 86	2.29	2.56	2.36	0.928	0.647	0.182	0.012	2.51
[2], days in culture: 102	1.31	1.4	1.07	0.401	0.241	0.0381	0.00408	1.02
[2], days in culture: 164	1.54	1.67	1.55	0.695	0.643	0.245	0.0314	1.37
[3], days in culture: 85	2.14	1.78	2.08	0.908	0.515	0.249	0.14	2.37
[4], days in culture: 173	2.61	0.967	1.48	1.01	0.438	0.352	0.0514	1.71
[4], days in culture: 194	1.66	1.19	1.63	0.737	0.441	0.49	0.0673	3.01
[4], days in culture: 215	1.78	1.21	1.14	0.664	0.531	0.192	0.0431	1.84
[5], days in culture: 223	1.99	3.08	1.41	0.945	0.479	0.703	0.169	2.08
[5], days in culture: 238	1.38	1.49	1.44	0.777	0.723	0.606	0.2	1.64
[5], days in culture: 252	2.43	1.86	1.79	1.19	0.654	0.535	0.388	1.93
[6], days in culture: 175	1.69	1.73	1.62	0.506	0.401	0.466	0.283	2.01
[6], days in culture: 189	2.16	2.67	1.63	0.619	0.34	0.244	0.0962	3.34
[6], days in culture: 212	1.26	1.57	2.69	0.0755	0.227	0.183	0.277	1.33
[6], days in culture: 224	2.13	1.98	1.91	0.411	0.423	0.26	0.17	1.86
